Experiment [1] concerns stress-response transcripts. Description: RNA-seq gene expression profiling of PSMD2 knockdown and control (shLacZ) cells. The experiment is classed as cell-based, human. Particulars: control cells; 12 nM bortezomib for 24 hours. How it is done: Sequence data confirmed that PSMD2 mRNA levels were reduced by ˜50% in both lines. We examined basal gene expression and the effects of bortezomib treatment on these cells, comparing them to cells carrying a control lacZ shRNA construct.
RNA was extracted from triplicate samples and RNA libraries were prepared for sequencing by NEBNext Ultra RNA Library Prep Kit for Illumina (New England BioLabs, Ipswich, Mass.), including the removal of large and small RNA, synthesis of cDNA, and construction of cDNA libraries. Libraries were barcoded using NEBNext Multiplex Oligos for Illumina (NEB). Libraries were sequenced using Illumina HiSeq 2500, with paired-end 100 bp reads. Paired-end reads were aligned to UCSC human transcriptome 19 (hg19) using TopHat (Bowtie v2.0.9). Alignment quality and read distribute was assessed via SAMtools (v0.1.19) (Li et al., 2009). Transcript assembly was conducted using cufflinks (v2.2.1). […] RNA sequencing data have been deposited in the NCBI Sequence Read Archive under accession number: PRJNA281613.
Genes differentially expressed upon PSMD2 knockdown in either the presence or absence of bortezomib treatment were determined as follows (FIG. 3E): For each gene in the matrix described above, the values were normalized to the average expression in the LacZ control cells. […]

Experiment [2] has as its system HepG2 cells. Description: Cell viability assay (resazurin) in HepG2 cells expressing proteasome subunit shRNAs. Type of experiment: cell-based, human. The text has this: Next, we asked if a simple reduction in the expression of 19S subunits could protect against the toxicity of proteasome inhibitors. We assembled a panel of shRNA-expressing lentiviruses targeting seventeen 19S subunits and three 20S subunits (PSMB5, PSMB7 and PSMA3). Each gene was targeted separately using four different shRNAs (FIG. 2, Table S2) and we averaged the effects on viability from these four hairpins.
For the analysis of multiple proteasome subunit knockdown 80 shRNA targeting 20 proteasome subunits (4 different shRNAs) and 13 control shRNAs (Table S2) in pLKO lentiviral vectors from the RNAi consortium shRNA library were utilized. Cells were plated in 96 wells with the volume of 100 μL media at the concentration of 2500 cells/well. 24 hours after plating media was discarded and 50 μl with 7.5-10 μg/μ1 of polybrene and 7 μl of purified virus was added. After incubation for 24 hours the media was discarded and 200 μl of fresh media with 1 μg/ml puromycin was added. Bortezomib was added where specified. pLKO lentiviral vectors from the RNAi consortium shRNA library targeting the PSMC5 and PSMD2 (Table 2) were further used to create HepG2 and T47D stably overexpressing these shRNAs by selection with puromycin 1 μg/ml for one week.
Relative cell growth and survival were measured in 96-well microplate format in the shRNA experiments and in 384 well format in the drug toxicity assays, by using the fluorescent detection of resazurin dye reduction as an endpoint (544 nm excitation and 590 nm emission). 2,500 cells in 96 wells format or 1,000 cells in 384 well format were plated 24 hours before compound exposure (for 72 hours or indicated time). Each analysis was performed at least with three replicas.

The test system of experiment [3] is IMR32 and Kelly cells. As to the kind of experiment: CellTiter-Glo viability of IMR32 and Kelly neuroblastoma cells. The settings on record: 0.001 um to 0.100 um; 72 hours. Type of experiment: cell-based. On the procedure:
IMR32 and Kelly cells were each cultured in the presence of bortezomib at concentrations ranging from 0.001 um to 0.100 um. […] The fold viability relative to culture in the absence of bortezomib was determined for each cell line.
The fold viability relative to culture in the absence of the compound was determined for each cell line.
(Cellular ATP, detected with luciferase, serves as a proxy for viable cell number.)

The structures appear in SMILES notation.

For `CC(C)C[C@H](NC(=O)[C@H](Cc1ccccc1)NC(=O)c1cnccn1)B(O)O` [bortezomib], the transcriptional response result in experiment [1] is “sharp increase in stress-response transcripts”. The “proliferation of lines stably expressing shRNA targeting PSMC5 or PSMD2” value in experiment [2] (HepG2, 12 nM bortezomib) is “continued proliferating”. In addition, the “concentration of bortezomib that completely inhibited the proliferation of control cells” value in experiment [2] (HepG2 control cells) is listed as 12 nM. Besides, in experiment [2] (HepG2 lines with shRNA-driven modest reduction in PSMD2, 4 days), the “EC50 values increased versus parental line” value was “three to six”. Further, the “resistance of IMR32 cells relative to Kelly cells” value in experiment [3] is given as “increased resistance”.

The values are drawn from patent US11092602B2, “Methods and compositions relating to proteasome inhibitor resistance” (Whitehead Institute for Biomedical Research, priority 2015, dated 2021).
